Row | melting point | SMILES
1 | 237.5 °C | CCOc1cc(-c2cc(C(F)(F)F)nc(-c3ccnc(-c4ccc(S(N)(=O)=O)s4)c3)n2)ccc1C(F)(F)F [Example 453, 5-{4-[4-(3-Ethoxy-4-trifluoromethyl-phenyl)-6-trifluoromethyl-pyrimidin-2-yl]-pyridin-2-yl}-thiophene-2-sulfonic acid amide]
2 | 176 to 179 °C | NS(=O)(=O)c1cccc(-c2cccc(-c3cc(C(F)(F)F)cc(-c4ccc(C(F)(F)F)cc4)n3)c2)c1 [Example 83, 3′-[4-Trifluoromethyl-6-(4-trifluoromethyl-phenyl)-pyridin-2-yl]-biphenyl-3-sulfonic acid amide]
3 | 285 °C | Nc1ccc(-c2cn(-c3nc(-c4ccc(C(F)(F)F)c(OCC(F)(F)F)c4)cc(C(F)(F)F)n3)cn2)cn1 [Example 134, 5-(1-{4-[3-(2,2,2-Trifluoro-ethoxy)-4-trifluoromethyl-phenyl]-6-trifluoromethyl-pyrimidin-2-yl}-1H-imidazol-4-yl)-pyridin-2-ylamine]
4 | 168.5 °C | FC(F)(F)c1cc(-c2ccc(Cl)cc2)nc(-c2nc(-c3cccnc3)no2)n1 [Example 29, 4-(4-Chloro-phenyl)-2-(3-pyridin-3-yl-[1,2,4]oxadiazol-5-yl)-6-trifluoromethyl-pyrimidine]
5 | 269 °C | FC(F)(F)c1cc(-c2ccc(Cl)cc2)nc(-n2cnc(-c3ccncc3)c2)n1 [Example 25, 4-(4-Chloro-phenyl)-2-(4-pyridin-4-yl-imidazol-1-yl)-6-trifluoromethyl-pyrimidine]
6 | 179 °C | Nc1ccc(-c2cccc(-c3nc(-c4ccc(Cl)c(Cl)c4)cc(C(F)(F)F)n3)c2)cn1 [Example 97, 5-{3-[4-(3,4-Dichloro-phenyl)-6-trifluoromethyl-pyrimidin-2-yl]-phenyl}-pyridin-2-ylamine]
7 | 180 °C | Cc1cc(-c2cc(C(F)(F)F)nc(-n3cnc(-c4cccc(S(N)(=O)=O)c4)c3)n2)ccc1C(F)(F)F [Example 213, 3-{1-[4-(3-Methyl-4-trifluoromethyl-phenyl)-6-trifluoromethyl-pyrimidin-2-yl]-1H-imidazol-4-yl}-benzenesulfonamide]
8 | 228 °C | Cc1cc(-c2ccc(Cl)cc2)nc(-c2cccc(-c3cnc(N)nc3)c2)n1 [Example 110, 5-{3-[4-(4-Chloro-phenyl)-6-methyl-pyrimidin-2-yl]-phenyl}-pyrimidin-2-ylamine]
9 | 163 °C (dec.) | Cc1cc(-c2ccc(C(F)(F)F)cc2)cc(-c2cccc(-c3cccc(S(=O)(=O)NC4CCOCC4)c3)n2)n1 [Example 444, 3-[6′-Methyl-4′-(4-trifluoromethyl-phenyl)-[2,2′]bipyridinyl-6-yl]-N-(tetrahydro-pyran-4-yl)-benzenesulfonamide]
10 | 233.5 °C | NS(=O)(=O)c1cccc(-c2cc(-c3nc(-c4ccc(C(F)(F)F)cc4)cc(C(F)F)n3)ccn2)c1 [Example 457, 3-{4-[4-Difluoromethyl-6-(4-trifluoromethyl-phenyl)-pyrimidin-2-yl]-pyridin-2-yl}-benzenesulfonamide]
11 | 174 °C | CNS(=O)(=O)c1cccc(-c2cc(-c3nc(-c4ccc(C(F)(F)F)cc4)cc(C(F)(F)F)n3)ccn2)c1 [Example 402, N-Methyl-3-{4-[4-trifluoromethyl-6-(4-trifluoromethyl-phenyl)-pyrimidin-2-yl]-pyridin-2-yl}-benzenesulfonamide]
12 | 241 °C | NS(=O)(=O)c1cccc(-c2cccc(-c3nc(-c4ccc(Cl)c(Cl)c4)cc(C(F)(F)F)n3)c2)c1 [Example 202, 3′-[4-(3,4-Dichloro-phenyl)-6-trifluoromethyl-pyrimidin-2-yl]-biphenyl-3-sulfonic acid amide]
13 | 248 °C | Nc1ccc(-c2cn(-c3nc(-c4cccc(Cl)c4)cc(C(F)(F)F)n3)cn2)cn1 [Example 186, 5-{1-[4-(3-Chloro-phenyl)-6-trifluoromethyl-pyrimidin-2-yl]-1H-imidazol-4-yl}-pyridin-2-ylamine]
14 | 267 °C (dec.) | Cc1cc(-c2ccc(Cl)c(C)c2)nc(-n2cnc(-c3ccc(S(N)(=O)=O)s3)c2)n1 [Example 225, 5-{1-[4-(4-Chloro-3-methyl-phenyl)-6-methyl-pyrimidin-2-yl]-1H-imidazol-4-yl}-thiophene-2-sulfonic acid amide]
15 | 210 °C | Nc1ccc(-c2cc(-c3nc(-c4ccc(C(F)(F)F)cc4)cc(C(F)F)n3)ccn2)cn1 [Example 88, 4-[4-Difluoromethyl-6-(4-trifluoromethyl-phenyl)-pyrimidin-2-yl]-[2,3′]bipyridinyl-6′-ylamine]
16 | 153 °C | O=S(=O)(NCCO)c1cccc(-c2cccc(-c3nc(-c4ccc(C(F)(F)F)cc4)cc(C(F)(F)F)n3)c2)c1 [Example 391, 3′-[4-Trifluoromethyl-6-(4-trifluoromethyl-phenyl)-pyrimidin-2-yl]-biphenyl-3-sulfonic acid (2-hydroxy-ethyl)-amide]
17 | 260 °C | Nc1ncc(-c2cccc(-c3cc(-c4ccc(C(F)(F)F)cc4)cc(C(F)(F)F)n3)c2)cn1 [Example 233, 5-{3-[6-Trifluoromethyl-4-(4-trifluoromethyl-phenyl)-pyridin-2-yl]-phenyl}-pyrimidin-2-ylamine]
18 | 218 °C | Cc1cc(-c2ccc(C(F)(F)F)cc2)cc(-c2ccnc(-c3cccc(S(=O)(=O)NC(C)(C)C)c3)n2)n1 [Example 262, N-tert-Butyl-3-{4-[6-methyl-4-(4-trifluoromethyl-phenyl)-pyridin-2-yl]-pyrimidin-2-yl}-benzenesulfonamide]
19 | 199 °C | Cc1cc(-c2ccc(Cl)cc2)nc(-c2ccnc(-c3ccc(N)nc3)c2)n1 [Example 112, 4-[4-(4-Chloro-phenyl)-6-methyl-pyrimidin-2-yl]-[2,3′]bipyridinyl-6′-ylamine]
20 | 205 °C | Nc1ccc(-c2nc(-c3nc(-c4ccc(C(F)(F)F)cc4)cc(C(F)(F)F)n3)no2)cn1 [Example 21, 5-{3-[4-Trifluoromethyl-6-(4-trifluoromethyl-phenyl)-pyrimidin-2-yl]-[1,2,4]oxadiazol-5-yl}-pyridin-2-ylamine]
21 | 282 °C | NS(=O)(=O)c1ccc(-c2cc(-c3nc(-c4ccc(F)cc4)cc(C(F)(F)F)n3)ccn2)s1 [Example 397, 5-{4-[4-(4-Fluoro-phenyl)-6-trifluoromethyl-pyrimidin-2-yl]-pyridin-2-yl}-thiophene-2-sulfonic acid amide]
22 | 150 °C (dec.) | CC(C)(CO)NS(=O)(=O)c1cccc(-c2cn(-c3cc(C(F)(F)F)cc(-c4ccc(C(F)(F)F)cc4)n3)cn2)c1 [Example 291, N-(2-Hydroxy-1,1-dimethyl-ethyl)-3-{1-[4-trifluoromethyl-6-(4-trifluoromethyl-phenyl)-pyridin-2-yl]-1H-imidazol-4-yl}-benzenesulfonamide]
23 | 236.5 °C | Nc1ccc(-c2nccc(-c3nc(-c4ccc(C(F)(F)F)cc4)cc(C(F)(F)F)n3)n2)cn1 [Example 101, 5-[6-Trifluoromethyl-4-(4-trifluoromethyl-phenyl)-[2,4′]bipyrimidinyl-2′-yl]-pyridin-2-ylamine]
24 | 160 °C | Cc1cc(-c2ccc(C(F)(F)F)cc2)cc(-c2cccc(-c3ccnc(N)c3)n2)n1 [Example 358, 6-Methyl-4-(4-trifluoromethyl-phenyl)-[2,2′;6′,4″]terpyridin-2″-ylamine]
